Test results from patent US11034701B2, “Drug delivery and imaging chemical conjugate, formulations and methods of use thereof” (NanoPhagix LLC, priority 2015, dated 2021).

Assay: Stability in HPLC mobile phases
Type: physicochemical
Details: HPLC mobile phases: MeOH/H2O/0.05% TFA, acetonitrile/H2O
Description: • 1. The HPLC purity may not be true. […] The HPLC purity is greatly dependent upon the HPLC mobile phases. With MeOH/H2O/0.05% of TFA buffer, the HPLC purity is 90%. With MeOH/H2O mobile phase, the HPLC purity is 91.7%. With acetonitrile/H2O mobile phase, the HPLC purity is 99%. […] HPLC condition for the compound of Formula 2

Structure (SMILES) | stability under HPLC conditions
CO[C@H]1C[C@@H]2CC[C@@H](C)[C@@](O)(O2)C(=O)C(=O)N2CCCC[C@H]2C(=O)O[C@H]([C@H](C)C[C@@H]2CC[C@@H](OC(=O)CCCCCOC(=O)c3c(I)c(NC(C)=O)c(I)c(NC(C)=O)c3I)[C@H](OC)C2)CC(=O)[C@H](C)/C=C(\C)[C@@H](O)[C@@H](OC)C(=O)[C@H](C)C[C@H](C)/C=C/C=C/C=C/1C [Formula 2] | not stable under some HPLC conditions
CO[C@H]1C[C@@H]2CC[C@@H](C)[C@@](O)(O2)C(=O)C(=O)N2CCCC[C@H]2C(=O)O[C@H]([C@H](C)C[C@@H]2CC[C@@H](O)[C@H](OC)C2)CC(=O)[C@H](C)/C=C(\C)[C@@H](O)[C@@H](OC)C(=O)[C@H](C)C[C@H](C)/C=C/C=C/C=C/1C [rapamycin] | same stability issues in HPLC mobile phases
